Catalepsigenic effect data for one compound are collected here from patent publication US5512569A, “Aminoalkyl benzothiazolinones” (Adir et Compagnie, priority 1994, dated 1996).

The data set deals with catalepsigenic effect. Kind of data set: Investigation into the catalepsigenic effect in rats. It counts as in vivo, Wistar rats. The conditions noted are these: 2 mg.kg^-1, same study conditions (IP, rats, 30-minute interval). The protocol:
The catalepsigenic effect is investigated in rats via the intraperitoneal route. This test predicts the existence of side effects of extrapyramidal type. 6 groups of Wistar rats received an injection of the compounds of the invention and were then tested for their catalepsigenic activity after a 30-minute interval. Haloperidol is used as reference.

As to `O=C(CCCN1CCC(O)(c2ccc(Cl)cc2)CC1)c1ccc(F)cc1` [haloperidol], the catalepsigenic effect was determined as 95%.
